Measured values reported in ChEMBL document CHEMBL1201862, “PubChem BioAssay data set” (2004).
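Grown in 96-well plates, cells were treated for 48 hours with each compound at five concentrations. Insufficient inhibition: endpoint recorded as highest concentration tested. Abbreviation: GI50, concentration required for 50% inhibition of growth.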 Calls of active or inactive are those of the source. No stated cut-off is given here; in the data, active = GI50 up to about 1.1 µM and inactive = higher.

What was measured:
Assay in all cases: NCI anticancer screen, dose series, 48 h
HCC 2998 = test system: HCC 2998
SF-295 = test system: SF-295
SN12C = test system: SN12C
SW-620 = test system: SW-620
HL-60 = test system: HL-60
HCT-116 = test system: HCT-116
SK-MEL-5 = test system: SK-MEL-5
OVCAR-3 = test system: OVCAR-3
786-0 = test system: 786-0
NCI-H460 = test system: NCI-H460
BT-549 = test system: BT-549
MOLT-4 = test system: MOLT-4
OVCAR-4 = test system: OVCAR-4
COLO 205 = test system: COLO 205
RXF 393 = test system: RXF 393
MDA-N = test system: MDA-N
TK-10 = test system: TK-10
NCI-H23 = test system: NCI-H23
UO-31 = test system: UO-31

Measured: GI50

COC(=O)Cn1cnc2c(Cl)nc(Nc3ccccc3)nc21
inactive: HCC 2998 6.52 µM | SF-295 > 100 µM | SN12C 28.8 µM | SW-620 65 µM | HL-60 22.4 µM | HCT-116 35.5 µM | SK-MEL-5 39 µM | OVCAR-3 21.1 µM | 786-0 > 100 µM | NCI-H460 32.8 µM | BT-549 86.5 µM | MOLT-4 26.5 µM | OVCAR-4 87.3 µM | COLO 205 59.6 µM | RXF 393 36.6 µM | MDA-N 30.8 µM | TK-10 > 100 µM

OC(CC(CC(O)(C(F)(F)F)C(F)(F)F)=NN=C(CC(O)(C(F)(F)F)C(F)(F)F)CC(O)(C(F)(F)F)C(F)(F)F)(C(F)(F)F)C(F)(F)F
inactive: HCC 2998 > 10 µM | SF-295 > 10 µM | SN12C > 10 µM | SW-620 > 10 µM | HL-60 > 10 µM | HCT-116 > 10 µM | SK-MEL-5 > 10 µM | OVCAR-3 > 10 µM | 786-0 > 10 µM | NCI-H460 > 10 µM | BT-549 > 10 µM | MOLT-4 > 10 µM | OVCAR-4 > 10 µM | NCI-H23 > 10 µM | COLO 205 > 10 µM | RXF 393 > 10 µM | MDA-N > 10 µM | TK-10 > 10 µM

C[C@]12CCC(=O)C=C1CC[C@@H]1[C@@H]2CC[C@]2(C)C(=O)/C(=C/c3ccc([N+](=O)[O-])cc3)C[C@@H]12
inactive: UO-31 3.45 µM | HCC 2998 63.2 µM | SF-295 63.7 µM | SN12C 46.3 µM | SW-620 > 100 µM | HL-60 3.51 µM | HCT-116 9.57 µM | SK-MEL-5 3.47 µM | OVCAR-3 8.91 µM | 786-0 18.6 µM | NCI-H460 9.57 µM | BT-549 6.3 µM | MOLT-4 2.77 µM | NCI-H23 27.8 µM | COLO 205 7.41 µM | RXF 393 13.5 µM | MDA-N 6.31 µM | TK-10 > 100 µM

O=C1NC(=O)C(c2c[nH]c3ccccc23)=C1c1cn(C(c2ccccc2)(c2ccccc2)c2ccccc2)cn1
inactive: HCC 2998 4.63 µM | SF-295 5.27 µM | SN12C 5.7 µM | SW-620 8.81 µM | HL-60 2.9 µM | HCT-116 3.34 µM | SK-MEL-5 7.57 µM | OVCAR-3 6.76 µM | 786-0 6.52 µM | NCI-H460 3.66 µM | BT-549 12.7 µM | MOLT-4 2.48 µM | OVCAR-4 4.06 µM | NCI-H23 6.35 µM | COLO 205 3.73 µM | RXF 393 4.52 µM | MDA-N 4.75 µM | TK-10 10.7 µM

COc1cc(/C=C2\N=C(c3ccccc3)N(c3nc4c(OC)ccc(OC)c4s3)C2=O)ccc1O
inactive: UO-31 76.7 µM | HCC 2998 33.8 µM | SF-295 79.1 µM | SN12C > 100 µM | SW-620 42.2 µM | HL-60 36.6 µM | HCT-116 95.9 µM | SK-MEL-5 54.8 µM | OVCAR-3 37.1 µM | 786-0 39.4 µM | NCI-H460 51.4 µM | BT-549 96.4 µM | MOLT-4 16.7 µM | NCI-H23 > 100 µM | COLO 205 96.8 µM | RXF 393 11.1 µM | MDA-N 24.1 µM | TK-10 58.1 µM

O=C(CC(=O)N1N=C(c2ccccc2)C(/N=N/c2ccc(S(=O)(=O)CCOS(=O)(=O)O)cc2)C1=O)Nc1ccc(Cl)cc1 (configuration not stated)
inactive: UO-31 40.3 µM | HCC 2998 59.4 µM | SF-295 > 100 µM | SN12C 86.5 µM | SW-620 > 10 µM | HL-60 > 100 µM | HCT-116 85.9 µM | SK-MEL-5 > 100 µM | OVCAR-3 > 100 µM | 786-0 > 100 µM | NCI-H460 > 100 µM | BT-549 > 100 µM | MOLT-4 79.3 µM | NCI-H23 > 100 µM | COLO 205 > 100 µM | RXF 393 > 100 µM | MDA-N > 100 µM | TK-10 > 100 µM
